Experimental findings from US20040121004A1, “Dosage forms containing a PPI, NSAID, and buffer” (priority 2002, published 2004) are described below.

The nature of series [1]: Substance compatibility in granulations: potency by HPLC, initially and after storage. The class given is physicochemical. The following applies: for Potency NSAID, 2 Weeks Extreme Conditions: 2 weeks at 40° C. with 75% to 85% relative humidity; for Potency NSAID, 4 Weeks Extreme Conditions: 4 weeks at 40° C. with 75% to 85% relative humidity; for Potency NSAID, 19 Days RT: 19 days at room temperature; for Potency NSAID, 33 Days RT: 33 days at room temperature. As to the method: In this example, granulations of a PPI and various NSAIDs were prepared to determine the compatibility of these substances with each other in a granulated form.
The potency (mg/g) of each drug substance in each granulation was determined by HPLC.
Granulations A, C, and D, as well as naproxen and piroxicam drug substances were weighed and separately placed in scintillation vials and stored at room temperature (RT) and at 40° C. with 75% to 85% relative humidity (“Extreme Conditions”). Granulations A, C, and D, as well as the naproxen and piroxicam, were tested for potency of the lansoprazole and NSAID after 19 and 33 days at the room temperature conditions and after two and four weeks under the Extreme Conditions.

A short description of series [2]: PPI/NSAID drug substance compatibility (storage stability of mixtures). The class given is physicochemical. As to the method:
Various NSAIDs were combined with lansoprazole with and without a buffer to determine the compatibility of the components. The various mixtures were placed at room temperature and 40° C. with 75% relative humidity. The samples were tested initially and after two weeks at the storage conditions above. The results are reported in Table 1 below as a percent of the theoretical amount of a given component.

On to `COc1ccc2cc([C@H](C)C(=O)O)ccc2c1` [Naproxen, naproxen], for which, in series [1], the “Potency NSAID, 2 Weeks Extreme Conditions” value is given as “NA/996.7 mg/g”; the “Potency NSAID, 4 Weeks Extreme Conditions” value is on record as “NA/1000.9 mg/g”; the “Potency NSAID, 19 Days RT” value is recorded as “NA/997.2 mg/g”; the “Potency NSAID, 33 Days RT” value is on record as “NA/998.2 mg/g”.
For the molecule `Cc1c(OCC(F)(F)F)ccnc1C[S+]([O-])c1nc2ccccc2[nH]1` (centres unmarked) [Lansoprazole, lansoprazole], the “% of Theory, lansoprazole, Initial” value in series [2] (initial, percent of theoretical amount of lansoprazole) is listed as 100.8/NA %. The “% of Theory, lansoprazole, 40° C. 75% humidity” value in series [2] (two weeks at 40° C. with 75% relative humidity) is recorded as 99.1/NA %. The “% of Theory, lansoprazole, Room Temp.” value in series [2] (two weeks at room temperature) was 99.1/NA %.
Consider `CN1C(C(=O)Nc2ccccn2)=C(O)c2ccccc2S1(=O)=O` [Piroxicam, piroxicam], for which, in series [1], the “Potency NSAID, 2 Weeks Extreme Conditions” value is on record as “NA/942.2 mg/g”; the “Potency NSAID, 4 Weeks Extreme Conditions” value is given as “NA/1005.5 mg/g”; the “Potency NSAID, 19 Days RT” value was “NA/1027.1 mg/g”; the “Potency NSAID, 33 Days RT” value is given as “NA/998.5 mg/g”.
